How the values were obtained:
ALK5/TGFBR1 = target: T1, ALK5/TGFBR1 (Homo sapiens, UniProt P36897); experiment: 375-member kinase panel; type: biochemical; settings: Run 1, Run 2; for % enzyme activity: 1 μM; for remaining activity at 1 µM: read-out: % enzyme activity, 1 μM
T1 construct: purchased Reaction Biology Corporation
T1 sequence (P36897 34-503): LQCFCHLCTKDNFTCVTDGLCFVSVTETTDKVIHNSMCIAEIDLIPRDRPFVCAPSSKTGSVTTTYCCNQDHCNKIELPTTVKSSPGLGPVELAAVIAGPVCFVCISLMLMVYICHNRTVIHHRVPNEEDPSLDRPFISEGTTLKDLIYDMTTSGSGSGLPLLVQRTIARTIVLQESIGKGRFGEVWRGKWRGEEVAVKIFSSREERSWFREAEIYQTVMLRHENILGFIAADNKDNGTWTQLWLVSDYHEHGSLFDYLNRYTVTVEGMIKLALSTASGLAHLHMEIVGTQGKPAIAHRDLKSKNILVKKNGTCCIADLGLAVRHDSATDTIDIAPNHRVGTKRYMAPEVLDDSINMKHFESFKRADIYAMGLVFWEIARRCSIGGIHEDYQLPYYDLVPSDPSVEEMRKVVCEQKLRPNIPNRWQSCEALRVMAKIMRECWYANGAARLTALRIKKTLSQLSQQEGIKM

AKT1 = AKT1 (Homo sapiens, UniProt P31749); settings: 1 μM; Run 1, Run 2
Chain of AKT1 (P31749 whole entry): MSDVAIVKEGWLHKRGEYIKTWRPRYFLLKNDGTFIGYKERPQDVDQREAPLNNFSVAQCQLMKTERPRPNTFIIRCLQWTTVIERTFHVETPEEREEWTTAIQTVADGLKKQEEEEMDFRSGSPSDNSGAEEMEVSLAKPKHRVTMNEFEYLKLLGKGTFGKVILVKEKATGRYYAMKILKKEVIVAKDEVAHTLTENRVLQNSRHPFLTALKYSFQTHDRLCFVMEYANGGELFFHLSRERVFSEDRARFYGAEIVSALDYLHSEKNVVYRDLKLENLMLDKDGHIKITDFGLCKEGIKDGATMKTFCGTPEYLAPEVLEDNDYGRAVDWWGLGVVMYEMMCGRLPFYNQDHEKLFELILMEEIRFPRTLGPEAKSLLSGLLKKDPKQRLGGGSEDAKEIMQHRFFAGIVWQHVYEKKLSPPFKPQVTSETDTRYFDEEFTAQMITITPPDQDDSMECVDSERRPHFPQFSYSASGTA

c-Kit = c-Kit (Homo sapiens, UniProt P10721); settings: 1 μM; Run 1, Run 2
Chain of c-Kit (P10721 26-976): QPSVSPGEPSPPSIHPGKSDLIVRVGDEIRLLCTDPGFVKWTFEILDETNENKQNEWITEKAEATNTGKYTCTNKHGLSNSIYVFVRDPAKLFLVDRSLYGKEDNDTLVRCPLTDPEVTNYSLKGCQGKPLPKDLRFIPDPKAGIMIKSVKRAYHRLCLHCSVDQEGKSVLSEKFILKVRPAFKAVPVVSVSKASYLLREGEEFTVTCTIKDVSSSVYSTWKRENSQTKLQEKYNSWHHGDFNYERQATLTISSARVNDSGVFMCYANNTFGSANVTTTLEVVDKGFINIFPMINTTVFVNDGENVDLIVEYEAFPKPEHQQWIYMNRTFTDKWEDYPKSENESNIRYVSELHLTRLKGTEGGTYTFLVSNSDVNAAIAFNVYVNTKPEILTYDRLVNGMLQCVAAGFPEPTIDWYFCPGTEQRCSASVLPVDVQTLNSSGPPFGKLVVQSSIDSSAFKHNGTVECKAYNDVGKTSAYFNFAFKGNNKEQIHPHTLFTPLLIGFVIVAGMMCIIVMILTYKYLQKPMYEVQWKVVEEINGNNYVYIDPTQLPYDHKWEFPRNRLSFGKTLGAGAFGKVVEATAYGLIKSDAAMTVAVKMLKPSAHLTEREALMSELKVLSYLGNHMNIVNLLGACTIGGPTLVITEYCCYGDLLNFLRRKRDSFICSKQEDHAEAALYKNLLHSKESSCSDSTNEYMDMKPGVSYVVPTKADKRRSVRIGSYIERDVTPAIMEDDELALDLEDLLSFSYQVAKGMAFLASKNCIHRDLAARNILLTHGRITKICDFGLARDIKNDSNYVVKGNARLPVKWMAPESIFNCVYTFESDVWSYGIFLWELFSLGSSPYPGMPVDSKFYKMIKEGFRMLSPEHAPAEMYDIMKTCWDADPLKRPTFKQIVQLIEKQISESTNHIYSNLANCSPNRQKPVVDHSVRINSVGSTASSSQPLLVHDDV

CK2a = CK2a (Homo sapiens, UniProt P68400); settings: 1 μM; Run 1, Run 2
Chain of CK2a (P68400 whole entry): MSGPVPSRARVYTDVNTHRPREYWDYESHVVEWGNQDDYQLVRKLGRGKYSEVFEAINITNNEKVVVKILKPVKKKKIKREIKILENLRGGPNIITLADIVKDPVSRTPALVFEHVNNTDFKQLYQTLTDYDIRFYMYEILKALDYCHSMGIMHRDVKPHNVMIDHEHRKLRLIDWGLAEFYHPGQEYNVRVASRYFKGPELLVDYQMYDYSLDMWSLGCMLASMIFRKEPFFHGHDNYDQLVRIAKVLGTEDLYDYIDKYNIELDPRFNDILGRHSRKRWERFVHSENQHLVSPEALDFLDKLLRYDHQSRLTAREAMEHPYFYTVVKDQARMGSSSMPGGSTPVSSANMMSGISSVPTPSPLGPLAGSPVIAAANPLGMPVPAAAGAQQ

IRR/INSRR = IRR/INSRR (Homo sapiens, UniProt P14616); settings: 1 μM; Run 1, Run 2
Chain of IRR/INSRR (P14616 27-1297): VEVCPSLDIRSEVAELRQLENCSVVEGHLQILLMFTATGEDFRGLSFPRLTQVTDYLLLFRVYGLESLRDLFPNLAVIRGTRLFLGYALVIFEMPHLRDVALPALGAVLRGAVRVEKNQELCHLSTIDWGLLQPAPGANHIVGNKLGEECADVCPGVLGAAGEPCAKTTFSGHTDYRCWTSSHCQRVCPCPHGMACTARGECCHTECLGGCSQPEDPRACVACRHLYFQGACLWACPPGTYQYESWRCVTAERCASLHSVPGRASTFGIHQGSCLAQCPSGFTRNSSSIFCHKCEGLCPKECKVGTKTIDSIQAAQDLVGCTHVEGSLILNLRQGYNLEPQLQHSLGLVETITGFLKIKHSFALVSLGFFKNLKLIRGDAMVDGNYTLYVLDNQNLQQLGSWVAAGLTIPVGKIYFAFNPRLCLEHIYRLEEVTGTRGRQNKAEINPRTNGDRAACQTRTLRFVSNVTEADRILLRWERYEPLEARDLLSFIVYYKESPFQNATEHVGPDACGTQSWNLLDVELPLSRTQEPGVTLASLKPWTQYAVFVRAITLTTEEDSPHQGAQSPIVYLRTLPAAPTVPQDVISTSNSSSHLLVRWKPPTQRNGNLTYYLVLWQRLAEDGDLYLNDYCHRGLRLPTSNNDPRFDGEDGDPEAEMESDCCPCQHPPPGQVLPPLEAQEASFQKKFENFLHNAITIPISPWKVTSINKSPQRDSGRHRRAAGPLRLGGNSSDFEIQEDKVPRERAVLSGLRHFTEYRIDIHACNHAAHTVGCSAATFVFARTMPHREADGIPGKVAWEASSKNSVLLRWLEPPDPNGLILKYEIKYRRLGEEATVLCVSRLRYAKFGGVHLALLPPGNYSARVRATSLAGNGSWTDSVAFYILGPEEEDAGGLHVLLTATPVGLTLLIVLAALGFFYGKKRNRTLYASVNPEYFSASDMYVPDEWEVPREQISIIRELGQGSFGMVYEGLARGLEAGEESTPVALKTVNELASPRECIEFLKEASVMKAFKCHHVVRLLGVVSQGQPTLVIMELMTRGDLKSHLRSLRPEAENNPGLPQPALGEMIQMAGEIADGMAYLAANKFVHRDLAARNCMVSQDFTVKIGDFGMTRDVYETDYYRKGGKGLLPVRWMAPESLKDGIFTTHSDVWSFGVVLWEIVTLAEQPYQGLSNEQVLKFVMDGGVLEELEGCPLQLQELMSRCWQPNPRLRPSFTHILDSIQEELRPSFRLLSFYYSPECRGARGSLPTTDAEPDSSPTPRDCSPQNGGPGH

PKG1a = target: T2, PKG1a (Homo sapiens, UniProt Q13976); settings: 1 μM; Run 1, Run 2
T2 sequence (Q13976 1-671): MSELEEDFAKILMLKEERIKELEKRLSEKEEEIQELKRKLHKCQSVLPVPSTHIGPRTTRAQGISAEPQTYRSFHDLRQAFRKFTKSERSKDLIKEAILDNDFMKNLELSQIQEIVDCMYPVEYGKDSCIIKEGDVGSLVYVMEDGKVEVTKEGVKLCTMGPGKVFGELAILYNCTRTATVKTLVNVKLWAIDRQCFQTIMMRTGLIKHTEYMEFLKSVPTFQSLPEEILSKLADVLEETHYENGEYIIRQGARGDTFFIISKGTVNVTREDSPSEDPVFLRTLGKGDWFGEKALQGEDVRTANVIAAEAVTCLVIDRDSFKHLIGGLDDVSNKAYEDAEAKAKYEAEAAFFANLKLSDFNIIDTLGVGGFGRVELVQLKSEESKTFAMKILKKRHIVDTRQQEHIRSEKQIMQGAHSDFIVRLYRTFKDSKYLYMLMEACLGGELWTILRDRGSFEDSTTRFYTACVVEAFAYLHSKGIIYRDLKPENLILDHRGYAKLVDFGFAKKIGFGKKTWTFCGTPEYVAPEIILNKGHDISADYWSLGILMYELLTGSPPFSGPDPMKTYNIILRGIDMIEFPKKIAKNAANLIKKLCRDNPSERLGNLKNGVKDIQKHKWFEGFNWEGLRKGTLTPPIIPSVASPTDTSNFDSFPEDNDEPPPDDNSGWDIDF

SGK1 = target: T3, SGK1 (Homo sapiens, UniProt O00141); settings: 1 μM; Run 1, Run 2
T3 sequence (O00141 1-431): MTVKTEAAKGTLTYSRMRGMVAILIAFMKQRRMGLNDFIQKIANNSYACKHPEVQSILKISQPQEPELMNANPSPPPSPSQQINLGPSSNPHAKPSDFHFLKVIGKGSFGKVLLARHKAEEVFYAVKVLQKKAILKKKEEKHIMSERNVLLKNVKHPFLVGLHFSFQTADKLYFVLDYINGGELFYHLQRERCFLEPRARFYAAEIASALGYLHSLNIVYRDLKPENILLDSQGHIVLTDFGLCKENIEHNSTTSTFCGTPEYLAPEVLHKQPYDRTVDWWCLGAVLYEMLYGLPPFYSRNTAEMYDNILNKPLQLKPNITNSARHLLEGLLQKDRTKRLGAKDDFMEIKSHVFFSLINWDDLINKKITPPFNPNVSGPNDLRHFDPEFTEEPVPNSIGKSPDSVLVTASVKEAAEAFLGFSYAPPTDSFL

SMILES | % enzyme activity (ALK5/TGFBR1) [%] | remaining activity at 1 µM (ALK5/TGFBR1) [%] | % enzyme activity (AKT1) [%] | % enzyme activity (c-Kit) [%] | % enzyme activity (CK2a) [%] | % enzyme activity (IRR/INSRR) [%] | % enzyme activity (PKG1a) [%] | % enzyme activity (SGK1) [%]
COc1cc(-c2cncc(-c3ccc(N4C[C@@H](C)N(C)[C@@H](C)C4)cc3)c2C)cc(F)c1C(N)=O [Compound 26c, 2-Fluoro-6-methoxy-4-(4-methyl-5-(4-((3R,5S)-3,4,5-trimethylpiperazin-1-yl)phenyl)pyridin-3-yl)benzamide] | 96.60 | 97.2 | 104.50 | 74.89 | 86.32 | 113.76 | 101.45 | 95.22
COc1cc(-c2cncc(-c3ccc(N4CCN(C)CC4)cc3)c2C)cc(F)c1C(N)=O [Compound 26a, 2-Fluoro-6-methoxy-4-(4-methyl-5-(4-(4-methylpiperazin-1-yl)phenyl)pyridin-3-yl)benzamide] | 82.28 | 82.5 | 102.39 | 74.03 | 91.32 | 99.85 | 97.81 | 93.48
